Bridge positions count the residues as written; N and C are the ends. Peptide text beside a SMILES is read from it.

The values below come from article PMC9833666, “Designing and identifying β-hairpin peptide macrocycles with antibiotic potential” (Science Advances, 2023).

This assay concerns Escherichia coli W3110. In kind it is cell-based. Conditions: for Ec W3110 MIC MH: E. coli W3110, MH medium; for Ec W3110 MIC RPMI: E. coli W3110, RPMI medium.

`CC[C@H](C)[C@@H]1NC(=O)[C@H](CCCNC(=N)N)NC(=O)[C@H](C(C)C)NC(=O)[C@@H](N)CSSC[C@@H](C(=O)O)NC(=O)[C@H](C(C)C)NC(=O)[C@H](CCC(N)=O)NC(=O)[C@H](CC(C)C)NC(=O)[C@H]([C@@H](C)O)NC(=O)[C@H](C(C)C)NC(=O)[C@H](CCCCN)NC(=O)[C@H](C(C)C)NC(=O)[C@H](CCCNC(=N)N)NC(=O)[C@H](CCCNC(=N)N)NC(=O)CNC(=O)CNC(=O)[C@H](CC(N)=O)NC(=O)[C@H](CC(N)=O)NC(=O)[C@H](CC(C)C)NC(=O)[C@H](CCCNC(=N)N)NC1=O` [SySA-53] (H-CVRIRLNNGGRRVKVTLQVC-OH; disulfide 1-20; N-terminus and C-terminus assumed): the Ec W3110 MIC MH came to 32 mg/L, the Ec W3110 MIC RPMI stood at 32 mg/L, the “W3110 MIC MH” value turned out to be 32 mg/L and the “W3110 MIC RPMI” value worked out at 32 mg/L.
Turning to `CC[C@H](C)[C@@H]1NC(=O)[C@H](CCCNC(=N)N)NC(=O)[C@H](C(C)C)NC(=O)[C@@H](N)CSSC[C@@H](C(=O)O)NC(=O)[C@H](C(C)C)NC(=O)[C@H](CCC(N)=O)NC(=O)[C@H](C(C)C)NC(=O)[C@H](CO)NC(=O)[C@H](C(C)C)NC(=O)[C@H](CCCCN)NC(=O)[C@H](C(C)C)NC(=O)[C@H](CCCNC(=N)N)NC(=O)[C@H](CCCNC(=N)N)NC(=O)[C@H](CCCNC(=N)N)NC(=O)[C@H](CCCNC(=N)N)NC(=O)[C@H](CC(N)=O)NC(=O)[C@H](CC(N)=O)NC(=O)[C@H](C(C)C)NC(=O)[C@H](CCCNC(=N)N)NC1=O` [SySA-62] (H-CVRIRVNNRRRRVKVSVQVC-OH; disulfide 1-20; N-terminus and C-terminus assumed), the Ec W3110 MIC MH is 32 mg/L, the Ec W3110 MIC RPMI was determined as 16 mg/L, the “W3110 MIC MH” value came out at 32 mg/L and the “W3110 MIC RPMI” value stood at 16 mg/L.
With `CC[C@H](C)[C@@H]1NC(=O)[C@H](CCCNC(=N)N)NC(=O)[C@H](C(C)C)NC(=O)[C@H](CCCNC(=N)N)NC(=O)[C@H](CO)NC(=O)[C@H](CCCNC(=N)N)NC(=O)[C@H](CCCNC(=N)N)NC(=O)[C@H](CC(N)=O)NC(=O)[C@H](CC(N)=O)NC(=O)[C@H](C(C)C)NC(=O)[C@H](CCCNC(=N)N)NC(=O)[C@H]([C@@H](C)CC)NC(=O)[C@H]([C@@H](C)O)NC(=O)[C@H](C(C)C)NC(=O)[C@@H](N)CSSC[C@@H](C(=O)O)NC(=O)[C@H](C(C)C)NC(=O)[C@H](CCC(N)=O)NC(=O)[C@H](CC(C)C)NC(=O)[C@H](CO)NC1=O` [SySA-63] (H-CVTIRVNNRRSRVRISLQVC-OH; disulfide 1-20; N-terminus and C-terminus assumed), the Ec W3110 MIC MH is 256 mg/L, the Ec W3110 MIC RPMI is 64 mg/L, the “W3110 MIC MH” value came to 256 mg/L and the “W3110 MIC RPMI” value worked out at 64 mg/L.
For `CC[C@H](C)[C@@H]1NC(=O)[C@H](CCCCN)NC(=O)[C@H](C(C)C)NC(=O)[C@H](CCCNC(=N)N)NC(=O)[C@H](CCCNC(=N)N)NC(=O)[C@H](CCCNC(=N)N)NC(=O)[C@H](CCCNC(=N)N)NC(=O)[C@H](CC(N)=O)NC(=O)[C@H](CC(N)=O)NC(=O)[C@H](CC(C)C)NC(=O)[C@H](CCCNC(=N)N)NC(=O)[C@H](C(C)C)NC(=O)[C@H](CCCNC(=N)N)NC(=O)[C@H](C(C)C)NC(=O)[C@@H](N)CSSC[C@@H](C(=O)O)NC(=O)[C@H](C(C)C)NC(=O)[C@H](CCC(=O)O)NC(=O)[C@H](C(C)C)NC(=O)[C@H](CO)NC1=O` [SySA-65] (H-CVRVRLNNRRRRVKISVEVC-OH; disulfide 1-20; N-terminus and C-terminus assumed), the Ec W3110 MIC MH stood at 64 mg/L, the Ec W3110 MIC RPMI was determined as 16 mg/L, the “W3110 MIC MH” value was 64 mg/L and the “W3110 MIC RPMI” value worked out at 16 mg/L.
As for `CC[C@H](C)[C@@H]1NC(=O)[C@H](CCCNC(=N)N)NC(=O)[C@H](C(C)C)NC(=O)[C@@H](N)CSSC[C@@H](C(=O)O)NC(=O)[C@H](C(C)C)NC(=O)[C@H](CCC(N)=O)NC(=O)[C@H](C(C)C)NC(=O)[C@H](CO)NC(=O)[C@H](C(C)C)NC(=O)[C@H](CCCCN)NC(=O)[C@H](C(C)C)NC(=O)CNC(=O)[C@H](CCCNC(=N)N)NC(=O)[C@H](CCCNC(=N)N)NC(=O)[C@H](CCCNC(=N)N)NC(=O)[C@H](CC(N)=O)NC(=O)[C@H](CC(N)=O)NC(=O)[C@H](CC(C)C)NC(=O)[C@H](CCCNC(=N)N)NC1=O` [SySA-66] (H-CVRIRLNNRRRGVKVSVQVC-OH; disulfide 1-20), the “W3110 MIC MH” value came out at 128 mg/L and the “W3110 MIC RPMI” value worked out at 32 mg/L.
On to `CC(C)C[C@@H]1NC(=O)[C@H](CCCNC(=N)N)NC(=O)[C@H](CCCNC(=N)N)NC(=O)[C@H](CCCNC(=N)N)NC(=O)CNC(=O)[C@H](CC(N)=O)NC(=O)[C@H](CC(N)=O)NC(=O)[C@H](CC(C)C)NC(=O)[C@H](CCCNC(=N)N)NC(=O)[C@H](C(C)C)NC(=O)[C@H](CCCNC(=N)N)NC(=O)[C@H](CC(C)C)NC(=O)[C@@H](N)CSSC[C@@H](C(=O)O)NC(=O)[C@H](C(C)C)NC(=O)[C@H](CCC(N)=O)NC(=O)[C@H](CC(C)C)NC(=O)[C@H](CO)NC(=O)[C@H](C(C)C)NC(=O)[C@H](CCCCN)NC1=O` [SySA-71] (H-CLRVRLNNGRRRLKVSLQVC-OH; disulfide 1-20; N-terminus and C-terminus assumed), for which the Ec W3110 MIC MH came out at 16 mg/L, the Ec W3110 MIC RPMI turned out to be 32 mg/L, the “W3110 MIC MH” value stood at 16 mg/L and the “W3110 MIC RPMI” value came out at 32 mg/L.
As for `CC[C@H](C)[C@@H]1NC(=O)[C@H](CCCNC(=N)N)NC(=O)[C@H](CC(C)C)NC(=O)CNC(=O)[C@H](CCCNC(=N)N)NC(=O)[C@H](CCCNC(=N)N)NC(=O)[C@H](CCCNC(=N)N)NC(=O)[C@H](CC(N)=O)NC(=O)[C@H](CC(N)=O)NC(=O)[C@H](CC(C)C)NC(=O)[C@H](CCCNC(=N)N)NC(=O)[C@H]([C@@H](C)CC)NC(=O)[C@H](CCCNC(=N)N)NC(=O)[C@H](CC(C)C)NC(=O)[C@@H](N)CSSC[C@@H](C(=O)O)NC(=O)[C@H](C(C)C)NC(=O)[C@H](CCC(N)=O)NC(=O)[C@H](CC(C)C)NC(=O)[C@H](CO)NC1=O` [SySA-72] (H-CLRIRLNNRRRGLRISLQVC-OH; disulfide 1-20; N-terminus and C-terminus assumed), the Ec W3110 MIC MH amounted to 32 mg/L, the Ec W3110 MIC RPMI was 8 mg/L, the “W3110 MIC MH” value is 32 mg/L and the “W3110 MIC RPMI” value is 8 mg/L.
With `CC[C@H](C)[C@@H]1NC(=O)[C@H](CCCNC(=N)N)NC(=O)[C@H](CC(C)C)NC(=O)CNC(=O)[C@H](CCCNC(=N)N)NC(=O)[C@H](CCCNC(=N)N)NC(=O)[C@H](CCCNC(=N)N)NC(=O)[C@H](CC(N)=O)NC(=O)[C@H](CC(N)=O)NC(=O)[C@H](CC(C)C)NC(=O)[C@H](CCCNC(=N)N)NC(=O)[C@H](C(C)C)NC(=O)[C@H](CCCNC(=N)N)NC(=O)[C@H](CC(C)C)NC(=O)[C@@H](N)CSSC[C@@H](C(=O)O)NC(=O)[C@H](C(C)C)NC(=O)[C@H](CCC(N)=O)NC(=O)[C@H](CC(C)C)NC(=O)[C@H](CO)NC1=O` [SySA-73] (H-CLRVRLNNRRRGLRISLQVC-OH; disulfide 1-20; N-terminus and C-terminus assumed), the Ec W3110 MIC MH is 32 mg/L, the Ec W3110 MIC RPMI is 8 mg/L, the “W3110 MIC MH” value worked out at 32 mg/L and the “W3110 MIC RPMI” value was 8 mg/L.
Regarding `CC[C@H](C)[C@@H]1NC(=O)[C@H](CCCCN)NC(=O)[C@H](CC(C)C)NC(=O)[C@H](CCCNC(=N)N)NC(=O)[C@H](CCCNC(=N)N)NC(=O)[C@H](CCCNC(=N)N)NC(=O)[C@H](CCCNC(=N)N)NC(=O)[C@H](CC(N)=O)NC(=O)[C@H](CC(N)=O)NC(=O)[C@H](CC(C)C)NC(=O)[C@H](CCCNC(=N)N)NC(=O)[C@H](C(C)C)NC(=O)[C@H](CCCNC(=N)N)NC(=O)[C@H](C(C)C)NC(=O)[C@@H](N)CSSC[C@@H](C(=O)O)NC(=O)[C@H](C(C)C)NC(=O)[C@H](CCC(=O)O)NC(=O)[C@H](CC(C)C)NC(=O)[C@H](CO)NC1=O` [SySA-78] (H-CVRVRLNNRRRRLKISLEVC-OH; disulfide 1-20; N-terminus and C-terminus assumed), the Ec W3110 MIC MH worked out at 32 mg/L, the Ec W3110 MIC RPMI came out at 16 mg/L, the “W3110 MIC MH” value was 32 mg/L and the “W3110 MIC RPMI” value was 16 mg/L.
Take `CC(C)C[C@@H]1NC(=O)[C@H](CCCNC(=N)N)NC(=O)[C@H](CCCNC(=N)N)NC(=O)[C@H](CCCNC(=N)N)NC(=O)CNC(=O)[C@H](CC(N)=O)NC(=O)[C@H](CC(N)=O)NC(=O)[C@H](C(C)C)NC(=O)[C@H](CCCNC(=N)N)NC(=O)[C@H](C(C)C)NC(=O)[C@H](CCCNC(=N)N)NC(=O)[C@H](C(C)C)NC(=O)[C@@H](N)CSSC[C@@H](C(=O)O)NC(=O)[C@H](C(C)C)NC(=O)[C@H](CCC(N)=O)NC(=O)[C@H](CC(C)C)NC(=O)[C@H](CO)NC(=O)[C@H](C(C)C)NC(=O)[C@H](CCCCN)NC1=O` [SySA-79] (H-CVRVRVNNGRRRLKVSLQVC-OH; disulfide 1-20; N-terminus and C-terminus assumed): the Ec W3110 MIC MH came out at 64 mg/L, the Ec W3110 MIC RPMI was 32 mg/L, the “W3110 MIC MH” value came out at 64 mg/L and the “W3110 MIC RPMI” value is 32 mg/L.
For `CC[C@H](C)[C@@H]1NC(=O)[C@H](CCCNC(=N)N)NC(=O)[C@H](C(C)C)NC(=O)[C@@H](N)CSSC[C@@H](C(=O)O)NC(=O)[C@H](C(C)C)NC(=O)[C@H](CCC(N)=O)NC(=O)[C@H](CC(C)C)NC(=O)[C@H]([C@@H](C)O)NC(=O)[C@H](C(C)C)NC(=O)[C@H](CCCCN)NC(=O)[C@H](C(C)C)NC(=O)[C@H](CCCNC(=N)N)NC(=O)[C@H](CCCNC(=N)N)NC(=O)[C@H](CCCNC(=N)N)NC(=O)[C@H](CCCNC(=N)N)NC(=O)[C@H](CC(N)=O)NC(=O)[C@H](CC(N)=O)NC(=O)[C@H](CC(C)C)NC(=O)[C@H](CCCNC(=N)N)NC1=O` [SySA-80] (H-CVRIRLNNRRRRVKVTLQVC-OH; disulfide 1-20; N-terminus and C-terminus assumed), the Ec W3110 MIC MH worked out at 16 mg/L, the Ec W3110 MIC RPMI was 16 mg/L, the “W3110 MIC MH” value is 16 mg/L and the “W3110 MIC RPMI” value came to 16 mg/L.
